PubChem BioAssay (NCI)
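Dose response: 5 concentrations. Exposure: 48 h. Format: 96-well plates. Endpoint: linear interpolation; highest concentration if not reached. TGI denotes the concentration required for complete inhibition of growth.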

Assays:
Assay in all cases: NCI-60 cell line screen, 48 h
CAKI-1 renal = test system: CAKI-1 renal
HCC-2998 colon = test system: HCC-2998 colon
HL-60(TB) leukemia = test system: HL-60(TB) leukemia
MDA-MB-231 breast = test system: MDA-MB-231 breast
MDA-N = test system: MDA-N
NCI-H23 lung = test system: NCI-H23 lung
NCI-H522 lung = test system: NCI-H522 lung
OVCAR-3 ovarian = test system: OVCAR-3 ovarian
SK-MEL-28 melanoma = test system: SK-MEL-28 melanoma
UACC-257 melanoma = test system: UACC-257 melanoma

SMILES: Cn1c(=O)c(C(=O)Nc2nc(C34CC5CC(CC(C5)C3)C4)cs2)c(O)c2ccccc21
- TGI (CAKI-1 renal): > 100 µM
- TGI (HCC-2998 colon): > 100 µM
- TGI (HL-60(TB) leukemia): > 100 µM
- TGI (MDA-MB-231 breast): > 100 µM
- TGI (MDA-N): > 100 µM
- TGI (NCI-H23 lung): > 100 µM
- TGI (NCI-H522 lung): > 100 µM
- TGI (OVCAR-3 ovarian): > 100 µM
- TGI (SK-MEL-28 melanoma): > 100 µM
- TGI (UACC-257 melanoma): > 100 µM

SMILES: CCCCCCCCOC1C(O)C(O)C(O)C(O)C12CO2 (stereo not given)
- TGI (CAKI-1 renal): > 100 µM
- TGI (HCC-2998 colon): > 100 µM
- TGI (HL-60(TB) leukemia): > 100 µM
- TGI (MDA-MB-231 breast): > 100 µM
- TGI (MDA-N): > 100 µM
- TGI (NCI-H23 lung): 31.3 µM
- TGI (NCI-H522 lung): > 100 µM
- TGI (OVCAR-3 ovarian): > 100 µM
- TGI (SK-MEL-28 melanoma): > 100 µM
- TGI (UACC-257 melanoma): > 100 µM

SMILES: O=S(=O)(O)c1cc(O)c2c(N=Cc3ccccc3O)cc(S(=O)(=O)O)cc2c1
- TGI (CAKI-1 renal): > 100 µM
- TGI (HCC-2998 colon): > 100 µM
- TGI (HL-60(TB) leukemia): > 100 µM
- TGI (MDA-MB-231 breast): > 100 µM
- TGI (MDA-N): > 100 µM
- TGI (NCI-H23 lung): > 100 µM
- TGI (NCI-H522 lung): > 100 µM
- TGI (OVCAR-3 ovarian): > 100 µM
- TGI (SK-MEL-28 melanoma): > 100 µM
- TGI (UACC-257 melanoma): > 100 µM

SMILES: COc1ccc2nc3ccc(OC)cc3c(SCCO)c2c1
- TGI (CAKI-1 renal): > 100 µM
- TGI (HCC-2998 colon): > 100 µM
- TGI (HL-60(TB) leukemia): 19.9 µM
- TGI (MDA-MB-231 breast): > 100 µM
- TGI (MDA-N): > 100 µM
- TGI (NCI-H23 lung): > 100 µM
- TGI (NCI-H522 lung): > 34.9 µM
- TGI (OVCAR-3 ovarian): > 100 µM
- TGI (SK-MEL-28 melanoma): > 100 µM
- TGI (UACC-257 melanoma): > 100 µM

SMILES: O=C(/C=C/c1ccc(O)c(O)c1)OCCCc1ccccc1
- TGI (CAKI-1 renal): 47 µM
- TGI (HCC-2998 colon): 39.5 µM
- TGI (HL-60(TB) leukemia): 4.84 µM
- TGI (MDA-MB-231 breast): 25.2 µM
- TGI (MDA-N): 31.3 µM
- TGI (NCI-H23 lung): 35.3 µM
- TGI (NCI-H522 lung): 5.59 µM
- TGI (OVCAR-3 ovarian): 6.6 µM
- TGI (SK-MEL-28 melanoma): 31.2 µM
- TGI (UACC-257 melanoma): 63.4 µM

SMILES: Nn1c(COc2cccc(OCc3n[nH]c(=S)n3N)c2)n[nH]c1=S
- TGI (CAKI-1 renal): > 100 µM
- TGI (HCC-2998 colon): > 100 µM
- TGI (HL-60(TB) leukemia): > 100 µM
- TGI (MDA-MB-231 breast): > 100 µM
- TGI (MDA-N): > 100 µM
- TGI (NCI-H23 lung): > 100 µM
- TGI (NCI-H522 lung): > 100 µM
- TGI (OVCAR-3 ovarian): > 100 µM
- TGI (SK-MEL-28 melanoma): > 100 µM
- TGI (UACC-257 melanoma): > 100 µM

SMILES: COC(=O)[C@]1(c2cc3ccccc3n2S(=O)(=O)c2ccccc2)CC2CN(C(C)=O)C1CC2=O (stereo not given in full)
- TGI (CAKI-1 renal): 7.79 µM
- TGI (HCC-2998 colon): 14 µM
- TGI (HL-60(TB) leukemia): 4.64 µM
- TGI (MDA-MB-231 breast): 7.4 µM
- TGI (MDA-N): 9.32 µM
- TGI (NCI-H23 lung): 9.38 µM
- TGI (NCI-H522 lung): 4.62 µM
- TGI (OVCAR-3 ovarian): 6.03 µM
- TGI (SK-MEL-28 melanoma): 11.7 µM
- TGI (UACC-257 melanoma): 7.8 µM

SMILES: CCN(CC)CC1CCCCN1CC(=O)N1c2ccccc2NC(=O)CC1C (stereo not given)
- TGI (CAKI-1 renal): > 100 µM
- TGI (HCC-2998 colon): > 100 µM
- TGI (HL-60(TB) leukemia): > 100 µM
- TGI (MDA-MB-231 breast): > 100 µM
- TGI (MDA-N): > 100 µM
- TGI (NCI-H23 lung): > 100 µM
- TGI (NCI-H522 lung): > 100 µM
- TGI (OVCAR-3 ovarian): > 100 µM
- TGI (SK-MEL-28 melanoma): > 100 µM
- TGI (UACC-257 melanoma): > 100 µM

SMILES: OC(c1cc2ccccc2o1)c1cc2ccccc2s1 (stereo not given)
- TGI (CAKI-1 renal): > 10 µM
- TGI (HCC-2998 colon): > 10 µM
- TGI (HL-60(TB) leukemia): > 10 µM
- TGI (MDA-MB-231 breast): > 10 µM
- TGI (MDA-N): > 10 µM
- TGI (NCI-H23 lung): > 10 µM
- TGI (NCI-H522 lung): > 10 µM
- TGI (OVCAR-3 ovarian): > 10 µM
- TGI (SK-MEL-28 melanoma): > 10 µM
- TGI (UACC-257 melanoma): > 10 µM

SMILES: Cc1nc(C)c(C(=O)NNC(N)=S)cc1C(=O)NNC(N)=S
- TGI (CAKI-1 renal): > 100 µM
- TGI (HCC-2998 colon): > 100 µM
- TGI (HL-60(TB) leukemia): > 100 µM
- TGI (MDA-MB-231 breast): > 100 µM
- TGI (MDA-N): > 100 µM
- TGI (NCI-H23 lung): > 100 µM
- TGI (NCI-H522 lung): > 100 µM
- TGI (OVCAR-3 ovarian): > 100 µM
- TGI (SK-MEL-28 melanoma): > 100 µM
- TGI (UACC-257 melanoma): > 100 µM

SMILES: CC1(C)N=C(C(N)=O)c2ncn(N)c2N1
- TGI (CAKI-1 renal): > 100 µM
- TGI (HCC-2998 colon): > 100 µM
- TGI (HL-60(TB) leukemia): > 100 µM
- TGI (MDA-MB-231 breast): > 100 µM
- TGI (MDA-N): > 100 µM
- TGI (NCI-H23 lung): > 100 µM
- TGI (NCI-H522 lung): > 100 µM
- TGI (OVCAR-3 ovarian): > 100 µM
- TGI (SK-MEL-28 melanoma): > 100 µM
- TGI (UACC-257 melanoma): > 100 µM

SMILES: CC[C@]12C=CCN3CC[C@@]4(c5cc(Br)c(OC)cc5N(C)[C@H]4[C@@](O)(C(=O)NN)[C@@H]1O)[C@@H]32
- TGI (CAKI-1 renal): > 100 µM
- TGI (HCC-2998 colon): > 100 µM
- TGI (HL-60(TB) leukemia): > 100 µM
- TGI (MDA-MB-231 breast): > 100 µM
- TGI (MDA-N): > 100 µM
- TGI (NCI-H23 lung): > 100 µM
- TGI (NCI-H522 lung): > 100 µM
- TGI (OVCAR-3 ovarian): > 100 µM
- TGI (SK-MEL-28 melanoma): > 100 µM
- TGI (UACC-257 melanoma): > 100 µM

SMILES: S=C(NC1=NCC(CN2CCN(c3ccccc3)CC2)O1)Nc1ccccc1 (stereo not given)
- TGI (CAKI-1 renal): > 100 µM
- TGI (HCC-2998 colon): > 100 µM
- TGI (HL-60(TB) leukemia): > 100 µM
- TGI (MDA-MB-231 breast): > 100 µM
- TGI (MDA-N): > 100 µM
- TGI (NCI-H23 lung): > 100 µM
- TGI (NCI-H522 lung): > 100 µM
- TGI (OVCAR-3 ovarian): > 100 µM
- TGI (SK-MEL-28 melanoma): > 100 µM
- TGI (UACC-257 melanoma): > 100 µM

SMILES: COC(=O)c1c(O)ccc2c1c1c(n2Cc2ccccc2Cl)C(=O)c2ccccc2C1=O
- TGI (CAKI-1 renal): 27.4 µM
- TGI (HCC-2998 colon): 29.9 µM
- TGI (HL-60(TB) leukemia): 49.6 µM
- TGI (MDA-MB-231 breast): 32.3 µM
- TGI (MDA-N): 31.1 µM
- TGI (NCI-H23 lung): 29.8 µM
- TGI (NCI-H522 lung): 25.5 µM
- TGI (OVCAR-3 ovarian): 21.8 µM
- TGI (SK-MEL-28 melanoma): 29.4 µM
- TGI (UACC-257 melanoma): 32.8 µM

SMILES: C[C@]12CC[C@H]3[C@@H](CC=C4C[C@@H](N5CCCC5)CC[C@@]43C)[C@@H]1C[C@H](N1CCOCC1)[C@@H]2O
- TGI (CAKI-1 renal): > 100 µM
- TGI (HCC-2998 colon): > 100 µM
- TGI (HL-60(TB) leukemia): > 100 µM
- TGI (MDA-MB-231 breast): > 100 µM
- TGI (MDA-N): > 100 µM
- TGI (NCI-H23 lung): > 100 µM
- TGI (NCI-H522 lung): > 100 µM
- TGI (OVCAR-3 ovarian): > 100 µM
- TGI (SK-MEL-28 melanoma): > 100 µM
- TGI (UACC-257 melanoma): > 100 µM

SMILES: O=C(/C=C/c1ccc(O)cc1)c1ccc2c(c1)OCO2
- TGI (CAKI-1 renal): 35.3 µM
- TGI (HCC-2998 colon): 40.5 µM
- TGI (HL-60(TB) leukemia): 41.3 µM
- TGI (MDA-MB-231 breast): 37.4 µM
- TGI (MDA-N): 86.1 µM
- TGI (NCI-H23 lung): 39.2 µM
- TGI (NCI-H522 lung): 34.2 µM
- TGI (OVCAR-3 ovarian): 41 µM
- TGI (SK-MEL-28 melanoma): 42.3 µM
- TGI (UACC-257 melanoma): 33.6 µM
